Assay [1] concerns the target SERT (Homo sapiens, UniProt P31645). The assay is described as follows: Affinity profile panel: SERT. The settings on record: inhibition of binding. An excerpt: Antipsychotic drugs (depending on the specific drug) typically interact with a range of serotonergic, adrenergic, histaminergic, and muscarinic receptors.
The target in assay [2] is D5 (Homo sapiens, UniProt P21918). Description: Affinity profile panel: D5. The settings on record: inhibition of binding.
Assay [3] has as its target M1 (Homo sapiens, UniProt P11229). Description: Affinity profile panel: M1. The settings on record: inhibition of binding.
The target of assay [4] is H3 (Homo sapiens, UniProt Q9Y5N1). The assay is described as follows: Affinity profile panel: H3. The settings on record: inhibition of binding.
Assay [5] concerns the target Beta2 (Homo sapiens, UniProt P07550). The assay is described as follows: Affinity profile panel: Beta2. The settings on record: inhibition of binding.
Assay [6] deals with T1, D2 GPCR receptor (DAR) (Homo sapiens, UniProt P14416).
T1 construct: host or cells: CHO PathHunter β-arrestin cells
The assay is described as follows: D2 beta-arrestin functional assay (PathHunter, CHO). The assay is classed as cell-based. An excerpt:
For a secondary-screen and selectivity assays, DAR PathHunter® β-arrestin GPCR cell lines from DiscoveRx (Fremont, Calif.). In this) were used. In the D2 Receptor PathHunter® β-arrestin GPCR cell line, the D2 GPCR receptor (DAR) is overexpressed and fused with a small 42-amino acid fragment of β-galactosidase called ProLink™ on a CHO cellular background expressing a fusion protein of β-arrestin and a larger N-terminal deletion mutant of β-galactosidase (“enzyme acceptor”). When DAR is activated by dopamine, it stimulates binding of β-arrestin to the ProLink-tagged DAR and the two complementary parts of β-galactosidase form a functional enzyme. When substrate (PathHunter® Detection reagent) is added, β-galactosidase hydrolyzes it and generates a chemiluminescent signal.
D2 Receptor PathHunter® β-arrestin cells were seeded at 2,100 cells/well in 3 μL/well media (DiscoveRx Plating Reagent 2) with MultiDrop Combi dispenser (Thermo Scientific, Logan, Utah) onto white tissue culture treated 1,536-well Aurora plates (Brooks Automation, Chelmsford, Mass.) and allowed to attach overnight at 37° C., 5% CO2. Next, 23 nL/well of compound solutions in DMSO were added with a pintool transfer (Kalypsis, San Diego, Calif.). The cells were stimulated by compounds for 90 min at 37° C., 5% CO2, after which 1.5 μL/well of DiscoveRx detection reagent was added with BioRAPTR FRD dispenser. The detection reagent was prepared by mixing of Galacton Star Substrate, Emerald II solution and PathHunter buffer (supplied by the assay kit) together at a 1:5:19 proportion just prior to dispensing. The plates were incubated at ambient temperature for 1 hr, and the luminescent signal was read on a ViewLux plate reader (PerkinElmer, Waltham, Mass.).

Assay [7] has as its target D4 (Homo sapiens, UniProt P21917). The assay is described as follows: Affinity profile panel: D4. The settings on record: inhibition of binding.
In assay [8] the target is Alpha1A (Homo sapiens, UniProt P35348). The assay is described as follows: Affinity profile panel: Alpha1A. The settings on record: inhibition of binding.
Assay [9] addresses PBR (Homo sapiens, UniProt P30536). The assay is described as follows: Affinity profile panel: PBR. The settings on record: inhibition of binding.

T1 sequence (P14416 whole entry): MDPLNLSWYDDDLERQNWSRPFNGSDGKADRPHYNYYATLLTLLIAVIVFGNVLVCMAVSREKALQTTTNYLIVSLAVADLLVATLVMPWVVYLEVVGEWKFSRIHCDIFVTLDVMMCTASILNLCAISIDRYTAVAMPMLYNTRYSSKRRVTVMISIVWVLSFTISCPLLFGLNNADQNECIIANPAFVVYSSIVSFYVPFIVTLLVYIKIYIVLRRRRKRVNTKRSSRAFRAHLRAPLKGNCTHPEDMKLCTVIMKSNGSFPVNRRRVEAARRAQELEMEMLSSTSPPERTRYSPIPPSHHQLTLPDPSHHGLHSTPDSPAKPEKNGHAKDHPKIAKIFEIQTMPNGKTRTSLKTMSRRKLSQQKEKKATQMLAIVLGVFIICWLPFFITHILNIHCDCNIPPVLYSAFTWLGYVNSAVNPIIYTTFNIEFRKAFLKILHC
Chain of Alpha1A (P35348 whole entry): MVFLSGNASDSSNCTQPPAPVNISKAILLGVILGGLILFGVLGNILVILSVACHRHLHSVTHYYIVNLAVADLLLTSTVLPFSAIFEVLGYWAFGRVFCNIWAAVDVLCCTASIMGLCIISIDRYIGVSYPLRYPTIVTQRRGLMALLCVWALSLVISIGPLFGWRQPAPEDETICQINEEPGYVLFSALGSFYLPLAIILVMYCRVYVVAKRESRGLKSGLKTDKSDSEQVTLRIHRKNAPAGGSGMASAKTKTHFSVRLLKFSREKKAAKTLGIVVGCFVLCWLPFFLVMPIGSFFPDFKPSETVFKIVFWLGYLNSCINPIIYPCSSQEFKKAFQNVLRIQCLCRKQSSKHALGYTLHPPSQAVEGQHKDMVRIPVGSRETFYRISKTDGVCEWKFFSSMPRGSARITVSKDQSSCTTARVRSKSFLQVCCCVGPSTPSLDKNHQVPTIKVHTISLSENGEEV
Chain of PBR (P30536 whole entry, species assumed): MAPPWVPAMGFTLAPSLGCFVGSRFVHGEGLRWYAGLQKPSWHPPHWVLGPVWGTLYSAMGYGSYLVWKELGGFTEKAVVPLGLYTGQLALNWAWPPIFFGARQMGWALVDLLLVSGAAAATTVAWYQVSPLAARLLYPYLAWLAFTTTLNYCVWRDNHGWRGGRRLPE
Chain of Beta2 (P07550 whole entry): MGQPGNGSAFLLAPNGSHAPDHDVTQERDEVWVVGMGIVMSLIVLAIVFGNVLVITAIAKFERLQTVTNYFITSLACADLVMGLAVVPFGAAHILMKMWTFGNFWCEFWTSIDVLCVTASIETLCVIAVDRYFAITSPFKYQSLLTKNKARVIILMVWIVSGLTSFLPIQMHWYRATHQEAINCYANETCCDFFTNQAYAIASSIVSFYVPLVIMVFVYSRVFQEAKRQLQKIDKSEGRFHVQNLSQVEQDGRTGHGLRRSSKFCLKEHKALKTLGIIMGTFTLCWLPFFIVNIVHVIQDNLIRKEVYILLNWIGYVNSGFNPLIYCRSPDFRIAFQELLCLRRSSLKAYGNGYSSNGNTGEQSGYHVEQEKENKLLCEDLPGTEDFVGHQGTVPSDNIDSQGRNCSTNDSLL
Chain of SERT (P31645 whole entry, species assumed): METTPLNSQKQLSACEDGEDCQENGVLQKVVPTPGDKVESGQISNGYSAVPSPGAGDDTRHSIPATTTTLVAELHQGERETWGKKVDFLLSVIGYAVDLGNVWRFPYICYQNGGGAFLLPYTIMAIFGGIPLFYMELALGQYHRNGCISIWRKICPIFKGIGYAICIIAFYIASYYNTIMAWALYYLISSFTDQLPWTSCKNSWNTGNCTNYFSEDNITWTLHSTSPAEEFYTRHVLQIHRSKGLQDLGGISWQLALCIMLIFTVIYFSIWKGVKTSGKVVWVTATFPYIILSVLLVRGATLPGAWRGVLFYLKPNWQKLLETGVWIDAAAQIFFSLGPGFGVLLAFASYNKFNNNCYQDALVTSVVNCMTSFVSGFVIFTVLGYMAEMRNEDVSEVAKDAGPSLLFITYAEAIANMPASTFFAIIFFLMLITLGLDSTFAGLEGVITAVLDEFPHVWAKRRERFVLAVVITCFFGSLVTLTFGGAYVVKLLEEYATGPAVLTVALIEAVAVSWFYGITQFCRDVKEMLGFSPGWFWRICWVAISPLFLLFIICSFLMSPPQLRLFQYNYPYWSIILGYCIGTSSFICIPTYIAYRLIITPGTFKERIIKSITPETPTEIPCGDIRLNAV
Chain of H3 (Q9Y5N1 whole entry): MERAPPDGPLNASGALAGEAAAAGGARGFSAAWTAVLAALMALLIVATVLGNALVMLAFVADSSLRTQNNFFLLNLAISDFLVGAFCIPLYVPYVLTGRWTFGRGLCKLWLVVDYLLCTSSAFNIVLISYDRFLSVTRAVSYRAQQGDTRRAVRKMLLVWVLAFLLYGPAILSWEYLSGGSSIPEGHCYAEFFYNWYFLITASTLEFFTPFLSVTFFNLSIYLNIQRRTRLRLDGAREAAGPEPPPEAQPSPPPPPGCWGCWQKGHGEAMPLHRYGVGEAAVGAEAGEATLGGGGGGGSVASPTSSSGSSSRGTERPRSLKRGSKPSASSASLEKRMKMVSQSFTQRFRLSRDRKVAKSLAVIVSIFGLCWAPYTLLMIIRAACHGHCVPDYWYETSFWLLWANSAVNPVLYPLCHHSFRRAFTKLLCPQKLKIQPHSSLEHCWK
Chain of D5 (P21918 whole entry): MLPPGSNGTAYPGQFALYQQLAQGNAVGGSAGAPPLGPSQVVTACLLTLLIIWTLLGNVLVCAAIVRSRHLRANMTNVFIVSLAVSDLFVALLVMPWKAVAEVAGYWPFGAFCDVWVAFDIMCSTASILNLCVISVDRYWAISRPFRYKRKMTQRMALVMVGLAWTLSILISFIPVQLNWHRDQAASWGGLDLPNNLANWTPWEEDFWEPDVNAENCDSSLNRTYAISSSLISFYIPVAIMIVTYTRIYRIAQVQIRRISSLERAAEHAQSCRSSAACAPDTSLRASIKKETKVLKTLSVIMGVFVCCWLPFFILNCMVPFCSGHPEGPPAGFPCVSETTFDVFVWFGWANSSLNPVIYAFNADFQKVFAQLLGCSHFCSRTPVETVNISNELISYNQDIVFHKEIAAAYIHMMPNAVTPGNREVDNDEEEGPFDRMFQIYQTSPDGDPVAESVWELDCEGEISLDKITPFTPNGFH
Chain of D4 (P21917 whole entry): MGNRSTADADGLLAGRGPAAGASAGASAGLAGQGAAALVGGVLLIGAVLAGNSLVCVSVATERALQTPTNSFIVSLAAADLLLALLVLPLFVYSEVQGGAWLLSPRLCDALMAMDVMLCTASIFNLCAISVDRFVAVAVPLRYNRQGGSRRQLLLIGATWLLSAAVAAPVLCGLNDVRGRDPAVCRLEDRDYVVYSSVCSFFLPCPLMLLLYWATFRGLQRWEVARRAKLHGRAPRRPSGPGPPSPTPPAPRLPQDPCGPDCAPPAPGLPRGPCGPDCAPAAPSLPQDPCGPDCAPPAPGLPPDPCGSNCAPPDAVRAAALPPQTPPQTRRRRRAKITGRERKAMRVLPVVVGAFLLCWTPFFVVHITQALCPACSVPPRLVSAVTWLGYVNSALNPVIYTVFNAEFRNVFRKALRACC
Chain of M1 (P11229 whole entry): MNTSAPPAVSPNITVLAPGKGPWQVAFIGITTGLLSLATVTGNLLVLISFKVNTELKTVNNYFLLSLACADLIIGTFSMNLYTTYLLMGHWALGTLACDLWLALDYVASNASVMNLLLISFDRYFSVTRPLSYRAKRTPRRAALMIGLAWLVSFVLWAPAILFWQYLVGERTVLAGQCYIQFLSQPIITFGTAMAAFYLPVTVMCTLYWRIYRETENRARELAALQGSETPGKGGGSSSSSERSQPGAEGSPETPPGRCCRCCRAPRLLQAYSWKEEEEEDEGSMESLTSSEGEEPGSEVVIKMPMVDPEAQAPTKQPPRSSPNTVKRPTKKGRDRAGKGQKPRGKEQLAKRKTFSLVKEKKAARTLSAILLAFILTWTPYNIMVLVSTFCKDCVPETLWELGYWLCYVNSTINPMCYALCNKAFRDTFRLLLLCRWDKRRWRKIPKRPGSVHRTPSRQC

Turning to `CN1C(=O)c2ccccc2[S@+]([O-])c2ccc(C(=O)NCCc3cccs3)cc21` [Compound 55, 10-Methyl-11-oxo-N-(2-(thiophen-2-yl)ethyl)-10,11-dihydrodibenzo[b,f][1,4]thiazepine-8-carboxamide 5-(S)-oxide], the “Inhibition (%) SERT” value in assay [1] amounted to 4.8%. Also, the “Inhibition (%) D5” value in assay [2] was −8.5%. Also, in assay [3], the “Inhibition (%) M1” value was −0.6%. Further, the “Inhibition (%) H3” value in [4] was −23.6%. The “Inhibition (%) Beta2” value in assay [5] is −13.2%. Besides, the AC50 in assay [6] (dose response curve, read-out: D2 β-arrestin assay AC50) worked out at 725 nM. The “D3/D2 beta-arrestin IC50ratio” value in assay [6] (ratio of D3 (Example 4) to D2 (Example 2) beta arrestin assay) was determined as 17.8. The “Inhibition (%) D4” value in assay [7] came to 32.2%. Further, the “Inhibition (%) Alpha1A” value in [8] was −13.4%. Also, the “Inhibition (%) PBR” value in assay [9] was 31%.

These data come from US9550742B2, “11-OXO-10,11-dihydrodibenzo[B,F][1,4]thiazepine S-oxide derivatives and their use as dopamine D2 receptor antagonists” (The United States of America, as Represented by the …, priority 2013, dated 2017).
